Holding throughout (type): cell-based
The test system of one experiment is Proteus mirabilis Fin #9. Briefly: two-fold brain-heart infusion agar dilution test. The following applies: BHI agar dilution, 10 ml/plate, read-out: minimum inhibitory concentration (MIC). The protocol: (§1) The antibacterial activity of the above material was tested in the usual fashion, using a two-fold, brain-heart infusion agar (BHI 10 ml/plate) dilution test with 12 different organisms. The following minimum inhibitory concentrations (MIC) were determined: […]
In general terms: In agar dilution, organisms are placed on agar that contains the substance at set levels.

The subject of experiment [1] is Proteus vulgaris Abbott JJ. Briefly: two-fold brain-heart infusion agar dilution test. The following applies: BHI agar dilution, 10 ml/plate, read-out: minimum inhibitory concentration (MIC). The protocol:
as §1

For the next experiment, the system named is Staph. aureus 45. Briefly: two-fold brain-heart infusion agar dilution test. The conditions noted are these: Staphylococcus aureus, BHI agar dilution, 10 ml/plate, read-out: minimum inhibitory concentration (MIC). As to the method:
as §1

Another experiment relates to Enterococcus 89. Briefly: two-fold brain-heart infusion agar dilution test. The conditions noted are these: BHI agar dilution, 10 ml/plate, read-out: minimum inhibitory concentration (MIC). As to the method:
as §1

In the next experiment the test system is Staph. aureus Smith. Briefly: two-fold brain-heart infusion agar dilution test. The conditions noted are these: Staphylococcus aureus, BHI agar dilution, 10 ml/plate, read-out: minimum inhibitory concentration (MIC). The protocol:
as §1

Experiment [2] deals with Streptococcus pyrogenes C203. Briefly: two-fold brain-heart infusion agar dilution test. The conditions noted are these: BHI agar dilution, 10 ml/plate, read-out: minimum inhibitory concentration (MIC). The protocol: as §1
In experiment [3] the test system is Pseudomonas aeruginosa BMH #10. Briefly: two-fold brain-heart infusion agar dilution test. The conditions noted are these: BHI agar dilution, 10 ml/plate, read-out: minimum inhibitory concentration (MIC). The protocol:
as §1

The test system of experiment [4] is Klebsiella pneumoniae 8045. Briefly: two-fold brain-heart infusion agar dilution test. The following applies: BHI agar dilution, 10 ml/plate, read-out: minimum inhibitory concentration (MIC). The protocol: as §1
Experiment [5] relates to Pasteurella multocida 10544. Briefly: two-fold brain-heart infusion agar dilution test. The following applies: BHI agar dilution, 10 ml/plate, read-out: minimum inhibitory concentration (MIC). As to the method: as §1
The subject of the next experiment is Escherichia coli Juhl. Briefly: two-fold brain-heart infusion agar dilution test. The conditions noted are these: BHI agar dilution, 10 ml/plate, read-out: minimum inhibitory concentration (MIC). The protocol: as §1
The test system of experiment [6] is Salmonella typhimurium Ed. #9. Briefly: two-fold brain-heart infusion agar dilution test. The conditions noted are these: Salmonella enterica, BHI agar dilution, 10 ml/plate, read-out: minimum inhibitory concentration (MIC). The protocol:
as §1

For experiment [7], the system named is Diplococcus pneumoniae 6301. Briefly: tube dilution test. The following applies: Streptococcus pneumoniae, broth with 20% horse serum, read-out: minimum inhibitory concentration (MIC). The protocol:
The antibacterial activity of the above material was tested in the usual fashion, using a two-fold, brain-heart infusion agar (BHI 10 ml/plate) dilution test with 12 different organisms. The following minimum inhibitory concentrations (MIC) were determined: | *tube dilution test; broth container with 20% horse serum

Structures can show the parent of a compound that is named as a salt.

For the compound `CC(=O)C1=C(O)C(N)C2Cc3c(c(O)c4c(O)c(C)ccc4c3C)C(O)=C2C1=O` (stereo not drawn) [12a-deoxychelocardin hydrobromide], the MIC with Proteus mirabilis Fin #9 stood at 6.2 µg/mL; in [1] it was 3.1 µg/mL; in the experiment with Staph. aureus 45 it was 3.1 µg/mL; in the experiment with Enterococcus 89, 6.2 µg/mL; in the experiment on Staph. aureus Smith, 3.1 µg/mL; in experiment [2], 6.2 µg/mL. Moreover, the MIC in experiment [3] was found to be 100 µg/mL; in [4], 6.2 µg/mL; in experiment [5], 0.39 µg/mL; in the experiment on Escherichia coli Juhl it was 25 µg/mL; in experiment [6], 6.2 µg/mL; in experiment [7], 25 µg/mL.

The values above are taken from patent US4104306A, “12A-Deoxy chelocardin” (Abbott Laboratories, priority 1976, dated 1978).
